Results from patent US20240124528A1, “ANTAGONIST OF INTERLEUKIN-17B RECEPTOR (IL-17RB) AND USE THEREOF” (Academia Sinica, priority 2020, published 2024).

Key:
[1] = system: pancreatic cancer cells expressing IL-17RB; assay: Soft agar colony formation (SACF) assay after peptide treatment; assay type: cell-based, human; conditions: CFPAC1 and PDX-derived cells treated with peptide
Text: FIGS. 7A to 7J include charts showing that disruption of the interaction between IL-17RB and MLK4 by the loop peptide blocks oncogenic progression. (FIG. 7A) Peptides TAT48-57 (Control) (SEQ ID NO: 21) and TAT-IL-17RB403-416 (Loop) (SEQ ID NO: 30) used for the following experiments. (FIG. 7B) Immunoblotting analysis of IL-17RB binding to MLK4 with Loop peptide treatment. 293T cells expressing Flag-MLK4 and HA-IL-17RB were pretreated with the control and loop peptides with different dose (0, 0.1, 1, 10, 50, 100 ng/ml) for 30 mins, and then added rIL-17B for 30 mins. […] CCL20 and TFF/mRNA expression of these cells were measured by RT-qPCR (n=3) (FIG. 7D), the same cells were for invasion assay (n=4) (FIG. 7E) and SACF assay (n=4) (FIG. 7F). […] (FIG. 7I) The experimental EKP mice (n=7 for each group) were euthanized at Day 56, and the metastatic tumor nodules in the lungs were counted. […]
FIGS. 19A to 19D include charts showing that treatment with the loop peptide suppresses aggressive behavior of patient-derived pancreatic tumor cells. […] (FIG. 19C and FIG. 19D) These cells were measured by RT-qPCR for the cytokine gene mRNA expression (n=3), or for Invasion assay (n=4) (FIG. 19C) and SACF assay (n=4) (FIG. 19D). […]
Soft agar colony formation assay was performed as described (7). […] Crystal violet-stained colonies greater than 50 μm in size were counted and analyzed objectively by light microscopy.

[2] = system: DCs derived from mouse bone marrow; assay type: cell-based
Description: (§1) (FIG. 24A) Flow chart describing the experimental design for testing the effects of anti-IL-17RB antibody and loop peptide on IL-17E-induced expression of IL-4 and IL-13 in peripheral blood mononuclear cells (PBMCs). PBMCs were purified by Ficoll-paque and used for the following experiments. (FIG. 24B to FIG. 24E) IL-4 and IL-13 expression induced by IL-17B or IL-17E in the PBMCs was determined by RT-qPCR after mIgG or anti-IL-17RB antibody pretreatment (FIG. 24B and FIG. 24C) and control or loop peptide pretreatment (FIG. 24D and FIG. 24E), respectively. (FIG. 24F and FIG. 24G) The DCs derived from mouse bone marrow were treated with the control or loop peptides, separately. (FIG. 24F) Flow cytometry analysis using anti-CD80, CD86 and MHC-II antibodies was performed to determine the activity of the DCs after incubation with the control or loop peptides for 48 hrs. (FIG. 24G) The activities of DCs were quantified by gating the area of the CD80, CD86 and MHC-II-positive cells (n=3). Data are mean±s.d.

CFPAC1-GFP/Luc cells = assay: Orthotopic CFPAC1-GFP/Luc xenograft pancreatic cancer model in NOD-SCID mice; assay type: in vivo, mouse
[3] = system: PDX-derived tumor cells (PC080, PC084); assay: Aggressive behavior of PDX-derived pancreatic tumor cells (RT-qPCR, invasion, SACF); assay type: cell-based, human; conditions: peptides 30 mins, then 50 ng/ml rIL-17B
Description: FIGS. 19A to 19D include charts showing that treatment with the loop peptide suppresses aggressive behavior of patient-derived pancreatic tumor cells. (FIG. 19A) CFPAC1 cells were treated with Alexa Fluor 568-labeled or non-labeled cold peptides of TAT48-57 (Control) and TAT-IL-17R403-416 (Loop) for 30 mins, respectively. Confocal microscopy was used for visualization of peptide penetration into cells. (FIG. 19B) The PDX-derived tumor cells (PC080 left, PC084 right) were pretreated with the peptides for 30 mins and then treated with 50 ng/ml rIL-17B for 2 hrs in serum-free conditions. (FIG. 19C and FIG. 19D) These cells were measured by RT-qPCR for the cytokine gene mRNA expression (n=3), or for Invasion assay (n=4) (FIG. 19C) and SACF assay (n=4) (FIG. 19D). Data in (FIG. 19B—FIG. 19D) are mean±s.d. * P<0.05, **P<0.001 by two-tailed Student's t-test.

[4] = system: peripheral blood mononuclear cells (PBMCs); assay: IL-17E-induced IL-4 and IL-13 mRNA expression in PBMCs (RT-qPCR); assay type: cell-based; conditions: peptide pretreatment
Description: as §1

[5] = NOD-SCID mice, peptide 160 μg/100 μl PBS i.p. twice per week

## RKKRRQRRRVCDGTCGKSEGSPS (IL-17RB inhibitory peptide, fusion protein) [loop peptide]
[1]
  colony formation ability (SACF): diminished
[2]
  bone marrow-derived dendritic cell activation (CD80, CD86, MHC-II): does not suppress IL-17E-induced IL-4 and IL-13 mRNA expression in PBMCs or affect
CFPAC1-GFP/Luc cells; NOD-SCID mice euthanized at Day 34
  distant metastases of the pancreatic tumors to liver and lung (IVIS): significantly suppressed
CFPAC1-GFP/Luc cells; [5]
  expression of phospho-IL-17RB in the pancreatic tumors (IHC): inhibited
  lifespan (Kaplan-Meier survival analysis): prolonged
  tumor growth (IVIS bioluminescence): significantly impeded
CFPAC1-GFP/Luc cells; orthotopic xenograft, NOD-SCID mice
  pancreatic tumor progression: suppresses
[3]
  aggressive behavior of patient-derived pancreatic tumor cells: suppresses
[4]
  IL-17E-induced IL-4 and IL-13 mRNA expression: does not suppress
